Literature values, collected in patent US20040213782A1, “Compositions of an aquaporin modulating agent and an aqueous humor modulating agent for the treatment of elevated intraocular pressure” (Pharmacia Corporation, priority 2003, published 2004).

Columns and labels:
AQP2 = details: kidney of cardiomyopathic hamsters; Wong and Tsui (2002)
AQP1 = details: epididymis of rats; Yu et al. (2002)
[1] = among corticosteroids; ophthalmic or systemic administration

For “angiotensin II (DRVYIHPF; Angiotensin-2; UniProt P01019 25-32, looked up) [peptide that increases the expression of AQP2 in the kidney of cardiomyopathic hamsters]”, the “expression of AQP2” value (AQP2) is given as “increases”.

For CC(=O)Nc1nnc(S(N)(=O)=O)s1 [acetazolamide], the “level of AQP1 expression” value (AQP1) is given as “significant decrease”.

For CCOC(=O)[C@H](CCc1ccccc1)N[C@@H](C)C(=O)N1CCC[C@H]1C(=O)O [enalapril], the “expression of AQP2” value (AQP2) is listed as “significant decrease”.

In the case of C[C@@H]1C[C@H]2[C@@H]3CCC4=CC(=O)C=C[C@]4(C)[C@@]3(F)[C@@H](O)C[C@]2(C)[C@@]1(O)C(=O)CO [dexamethasone], the “increase in intraocular pressure” value [1] is listed as “most pronounced increase”.
